Tested on: Cladosporium cucumerinum
Experiment: Antifungal activity against phytopathogenic Cladosporium cucumerinum by bioautographic TLC assay
Type: functional

MIC [µg]	Structure (SMILES)
1	O=C1C=CC[C@@H](C[C@H](O)CCCCc2ccccc2)O1
1	Clc1ccc(COC(Cn2ccnc2)c2ccc(Cl)cc2Cl)c(Cl)c1 (configuration not stated) [MICONAZOLE]
